Among the data in ChEMBL document CHEMBL3046834, “MODULATION OF FILARIAL GLUTATHIONE-S-TRANSFERASE(S) ACTIVITY: A POSSIBILITY TOWARDS THE SYNTHESIS OF NEW CLASSES OF ANTIFILARIAL AGENTS” (Med Chem Res, 2004) are Activity and inhibition values, retold here.

The inhibition is the change of the read-out against control, counted positive when it falls.

Calls of active or inactive are those of the source. No cut-off for these calls is given here.

The subject of data set [1] is Brugia malayi. The data set is described as follows: Antifilarial activity against Brugia malayi isolated from jird assessed as motility at 100 uM after 24 hr by dissecting microscopy. In kind it is functional, organism-based.
Data set [2] can be described thus: Stimulation of GST in Mus musculus (mouse) liver using CDNB as substrate at 100 uM after 10 min by spectrophotometric analysis relative to control. Type of data set: ADME, tissue-based.
In data set [3] the test system is Brugia malayi. The experiment in a line: Antifilarial activity against Brugia malayi isolated from jird assessed as inhibition of MTT reduction at 100 uM after 1 hr. Type of data set: functional. A general note: Formazan colour is commonly taken as a measure of viable cells.
Data set [4] concerns GST (glutathione S-transferase). The data set is described as follows: Inhibition of GST in Mus musculus (mouse) liver using CDNB as substrate at 100 uM after 10 min by spectrophotometric analysis relative to control. Type of data set: tissue-based. The following applies: probe CDNB.

For `CCCCN1C(=S)N(c2cccc(Cl)c2)C(=O)CC1[C@H]1O[C@@H]2OC(C)(C)O[C@@H]2[C@H]1OC` (stereo not given in full), the result with Brugia malayi [1] was Active. The Activity in data set [2] amounted to 21%.
For the compound `CO[C@@H]1[C@H]2OC(C)(C)O[C@H]2O[C@@H]1C1CC(=O)N(c2ccc(Br)cc2)C(=O)N1c1ccco1` (stereo not given in full), in the data set with Brugia malayi [3], the inhibition at 100 µM was 32%. Further, the result in the data set with Brugia malayi [1] was inactive. For the same compound, the inhibition at 10 min, 100 µM in data set [4] was found to be 32%.
For `CCCCCCCCCCCCCCCCNC(CC(=O)NO)C1O[C@H]2OC(C)(C)O[C@H]2[C@@H]1OC` (stereo not given in full), the inhibition at 100 µM in the data set with Brugia malayi [3] came out at 92%. In the data set on Brugia malayi [1], the result was Active. Besides, in data set [2], the Activity was 214%.
As for `CO[C@@H]1C(C(CC(N)=O)N(C(=O)Nc2ccccc2C)C(CC(N)=O)C2O[C@@H]3OC(C)(C)O[C@@H]3[C@H]2OC)O[C@H]2OC(C)(C)O[C@H]21` (stereo not given in full), the inhibition at 100 µM in the data set with Brugia malayi [3] stood at 20%. Further, the result with Brugia malayi [1] was inactive.
Take `CCOC(=O)CC(NCCCCCCCNC(CC(=O)OCC)C1O[C@@H]2OC(C)(C)O[C@@H]2[C@H]1OCc1ccccc1)C1O[C@H]2OC(C)(C)O[C@H]2[C@@H]1OCc1ccccc1` (stereo not given in full): the outcome with Brugia malayi [1] was Active.
Consider `CO[C@@H]1[C@H]2OC(C)(C)O[C@H]2O[C@@H]1C1CC(=O)N(Cc2ccccc2)C(=O)N1Cc1ccc(Br)cc1` (stereo not given in full), for which the outcome in the data set on Brugia malayi [1] was Active. Moreover, in data set [2], the Activity came to 41%.
As for `CCCCc1ccc(N2C(=O)CC([C@H]3O[C@@H]4OC(C)(C)O[C@@H]4[C@H]3OC)N(Cc3ccccc3)C2=O)cc1` (stereo not given in full), the inhibition at 100 µM in the data set on Brugia malayi [3] was 76%. Also, in the data set on Brugia malayi [1], the outcome was inactive. In data set [4], the inhibition at 10 min, 100 µM was found to be 13%.
Take `CO[C@@H]1[C@H]2OC(C)(C)O[C@H]2O[C@@H]1C1CC(=O)N(c2cccc(C(C)=O)c2)C(=O)N1Cc1ccc(Br)cc1` (stereo not given in full): the outcome in the data set on Brugia malayi [1] was inactive. Also, the inhibition at 10 min, 100 µM in data set [4] is 27%.
As for `CCOc1ccc(N2C(=O)CC([C@H]3O[C@@H]4OC(C)(C)O[C@@H]4[C@H]3OC)N(Cc3ccccc3)C2=O)cc1` (stereo not given in full), the inhibition at 100 µM in the data set on Brugia malayi [3] is 50%. Besides, the outcome in the data set with Brugia malayi [1] was inactive.
Regarding `COc1ccc(CN2C(=O)N(c3cc(Cl)cc(Cl)c3)C(=O)CC2[C@H]2O[C@@H]3OC(C)(C)O[C@@H]3[C@H]2OCc2ccccc2)cc1` (stereo not given in full), the inhibition at 100 µM in the data set with Brugia malayi [3] amounted to 92%. In addition, the result in the data set on Brugia malayi [1] was inactive. Besides, the Activity in data set [2] is reported as 12%.
As to `COc1ccc(CN2C(=O)N(c3cccc(C(C)=O)c3)C(=O)CC2[C@H]2O[C@@H]3OC(C)(C)O[C@@H]3[C@H]2OC)cc1` (stereo not given in full), the inhibition at 100 µM in the data set on Brugia malayi [3] stood at 59%. Also, the result with Brugia malayi [1] was inactive. Moreover, the inhibition at 10 min, 100 µM in data set [4] was determined as 41%.
For `CC1(C)O[C@H]2O[C@H](C3CC(=O)N(Cc4ccccc4)C(=O)N3Cc3ccccc3)[C@H](OCc3ccccc3)[C@H]2O1` (stereo not given in full), in the data set on Brugia malayi [3], the inhibition at 100 µM stood at 65%. Besides, the outcome in the data set on Brugia malayi [1] was inactive. In data set [2], this compound had an Activity of 13%.
Turning to `CC1(C)O[C@@H]2OC(CNCCCCCCCNCC3O[C@@H]4OC(C)(C)O[C@@H]4[C@H]3OCc3ccccc3)[C@@H](OCc3ccccc3)[C@@H]2O1` (stereo not given in full), the result in the data set with Brugia malayi [1] was inactive.
Regarding `CO[C@@H]1[C@H]2OC(C)(C)O[C@H]2O[C@@H]1C1CC(=O)N(c2ccc(F)cc2)C(=O)N1c1ccco1` (stereo not given in full), in the data set with Brugia malayi [3], the inhibition at 100 µM stood at 70%. Besides, in the data set with Brugia malayi [1], the outcome was inactive.
As for `CCCCN1C(=S)N(c2ccccc2Cl)C(=O)CC1[C@H]1O[C@@H]2OC(C)(C)O[C@@H]2[C@H]1OC` (stereo not given in full), the result with Brugia malayi [1] was inactive. For the same compound, the Activity in data set [2] is on record as 64%.
As for `CO[C@@H]1[C@H]2OC(C)(C)O[C@H]2O[C@@H]1C1CC(=O)N(Cc2ccccc2)C(=O)N1Cc1ccccc1` (stereo not given in full), in the data set on Brugia malayi [1], the result was inactive.
As to `Cc1cc(N2C(=O)CC([C@H]3O[C@@H]4OC(C)(C)O[C@@H]4[C@H]3OCc3ccccc3)N(Cc3ccc(Br)cc3)C2=O)ccc1Cl` (stereo not given in full), the outcome in the data set with Brugia malayi [1] was Active.
With `CCOC(=O)CC(NC(=O)[C@@H]1CCCN1C(=O)OCC1c2ccccc2-c2ccccc21)C1O[C@H]2OC(C)(C)O[C@H]2[C@@H]1OC` (stereo not given in full), in the data set on Brugia malayi [3], the inhibition at 100 µM worked out at 37%. Also, in the data set with Brugia malayi [1], the result was Active. The Activity in data set [2] is recorded as 197%.
In the case of `CC(=O)c1ccc(N2C(=O)CC([C@H]3O[C@@H]4OC(C)(C)O[C@@H]4[C@H]3OCc3ccccc3)NC2=O)cc1` (stereo not given in full), the inhibition at 100 µM in the data set on Brugia malayi [3] worked out at 27%. Also, the outcome with Brugia malayi [1] was Active. In data set [2], this compound returned an Activity of 19%.
Taken in the same sequence, the figures for `CO[C@@H]1[C@H]2OC(C)(C)O[C@H]2O[C@@H]1C1CC(=O)N(c2ccc(Cl)cc2)C(=O)N1` (stereo not given in full) were 52%, “inactive” and 24%.
As for `COc1ccc(CN2C(=O)N(Cc3ccccc3)C(=O)CC2[C@H]2O[C@@H]3OC(C)(C)O[C@@H]3[C@H]2OCc2ccccc2)cc1` (stereo not given in full), the outcome in the data set on Brugia malayi [1] was inactive.
As to `COc1ccc(N(C(=O)NCc2ccccc2)[C@@H](CC(=O)O)C(=O)NC(CC(N)=O)C2O[C@H]3OC(C)(C)O[C@H]3[C@@H]2OC)cc1` (stereo not given in full), the result in the data set on Brugia malayi [1] was inactive.
For `COc1ccc(CN2C(=O)N(c3cccc(C(C)=O)c3)C(=O)CC2[C@H]2O[C@@H]3OC(C)(C)O[C@@H]3[C@H]2OCc2ccccc2)cc1` (stereo not given in full), in the data set on Brugia malayi [1], the outcome was inactive. Moreover, the Activity in data set [2] came out at 13%.
As to `CO[C@@H]1C(C(CC(N)=O)NC(=O)Nc2ccc(C)c(Cl)c2)O[C@H]2OC(C)(C)O[C@H]21` (stereo not given in full), in the data set on Brugia malayi [1], the outcome was inactive.
Regarding `CO[C@@H]1[C@H]2OC(C)(C)O[C@H]2O[C@@H]1C1CC(=O)N(c2ccc(Cl)c(C)c2)C(=O)N1Cc1ccc(Br)cc1` (stereo not given in full), in the data set on Brugia malayi [3], the inhibition at 100 µM stood at 45%. Besides, the outcome in the data set with Brugia malayi [1] was inactive.
Consider `CO[C@@H]1[C@H]2OC(C)(C)O[C@H]2O[C@@H]1C1CC(=O)N(c2cccc(C#N)c2)C(=O)N1Cc1ccccc1` (stereo not given in full), for which, in the data set with Brugia malayi [1], the result was inactive. This compound displayed an inhibition at 10 min, 100 µM in data set [4] of 32%.
`CCOC(=O)CC(C1O[C@H]2OC(C)(C)O[C@H]2[C@@H]1OC)N(Cc1ccccc1O)C(=O)Nc1cccc(C(C)=O)c1` (stereo not given in full): the inhibition at 100 µM in the data set on Brugia malayi [3] was found to be 41%. Moreover, in the data set with Brugia malayi [1], the outcome was Active. In addition, the inhibition at 10 min, 100 µM in data set [4] was 23%.
Regarding `CCCCCCCCCCCCNC(CC(=O)NO)C1O[C@H]2OC(C)(C)O[C@H]2[C@@H]1OCc1ccccc1` (stereo not given in full), the inhibition at 100 µM in the data set on Brugia malayi [3] worked out at 98%. Besides, the outcome in the data set with Brugia malayi [1] was Active. In data set [2], the Activity is reported as 57%.
As to `CO[C@@H]1[C@H]2OC(C)(C)O[C@H]2O[C@@H]1C1CC(=O)N(c2cccc(C#N)c2)C(=O)N1Cc1ccc(Br)cc1` (stereo not given in full), the inhibition at 100 µM with Brugia malayi [3] turned out to be 37%. The outcome with Brugia malayi [1] was inactive. In addition, the inhibition at 10 min, 100 µM in data set [4] is 19%.
As for `CC[C@H](C)[C@@H](C(=O)NC(CC(N)=O)C1O[C@H]2OC(C)(C)O[C@H]2[C@@H]1OC)N(C(=O)Nc1ccccc1C)c1ccco1` (stereo not given in full), the outcome with Brugia malayi [1] was Active.
As for `CCOC(=O)CC(NC(=O)[C@@H]1CCCN1)C1O[C@H]2OC(C)(C)O[C@H]2[C@@H]1OC` (stereo not given in full), the result in the data set with Brugia malayi [1] was Active. In data set [2], the Activity is 28%.
In the case of `COC(=O)CC(NC(=S)Nc1ccccc1)C1O[C@H]2OC(C)(C)O[C@H]2[C@@H]1OCc1ccccc1` (stereo not given in full), the inhibition at 100 µM with Brugia malayi [3] stood at 69%. The result in the data set with Brugia malayi [1] was Active.
For the compound `CCOc1ccc(N2C(=O)CC([C@H]3O[C@@H]4OC(C)(C)O[C@@H]4[C@H]3OC)N(c3ccco3)C2=O)cc1` (stereo not given in full), the inhibition at 100 µM in the data set on Brugia malayi [3] turned out to be 34%. For the same compound, in the data set with Brugia malayi [1], the outcome was inactive. Moreover, in data set [4], the inhibition at 10 min, 100 µM came to 26%.
As for `CC1(C)O[C@H]2O[C@H](C3CC(=O)N(Cc4ccccc4)C(=O)N3Cc3ccc(Br)cc3)[C@H](OCc3ccccc3)[C@H]2O1` (stereo not given in full), the inhibition at 100 µM with Brugia malayi [3] came out at 24%. Further, in the data set on Brugia malayi [1], the outcome was inactive.
Regarding `CCCCc1ccc(N2C(=O)CC([C@H]3O[C@@H]4OC(C)(C)O[C@@H]4[C@H]3OC)N(c3ccco3)C2=O)cc1` (stereo not given in full), the inhibition at 100 µM in the data set with Brugia malayi [3] was found to be 57%. The outcome with Brugia malayi [1] was inactive.
For the compound `COc1ccc(CN2C(=O)N(c3cccc(C#N)c3)C(=O)CC2[C@H]2O[C@@H]3OC(C)(C)O[C@@H]3[C@H]2OC)cc1` (stereo not given in full), the inhibition at 100 µM with Brugia malayi [3] came out at 34%. Moreover, the result in the data set with Brugia malayi [1] was inactive. The inhibition at 10 min, 100 µM in data set [4] amounted to 20%.
On to `CCCCN(C(=S)Nc1ccccc1Cl)C(CC(=O)OCC)C1O[C@H]2OC(C)(C)O[C@H]2[C@@H]1OC` (stereo not given in full), for which the outcome with Brugia malayi [1] was Active. For the same compound, the Activity in data set [2] amounted to 38%.
For the compound `CC1(C)O[C@@H]2OC(CNCCCCCCCCCCCCNCC3O[C@@H]4OC(C)(C)O[C@@H]4[C@H]3OCc3ccccc3)[C@@H](OCc3ccccc3)[C@@H]2O1` (stereo not given in full), in the data set with Brugia malayi [3], the inhibition at 100 µM is 94%. Further, the result with Brugia malayi [1] was Active.
`CCOC(=O)CC(NCCCCCCCCCCCCNC(CC(=O)OCC)C1O[C@@H]2OC(C)(C)O[C@@H]2[C@H]1OCc1ccccc1)C1O[C@H]2OC(C)(C)O[C@H]2[C@@H]1OCc1ccccc1` (stereo not given in full): in the data set with Brugia malayi [1], the outcome was inactive.
In the case of `CCOC(=O)CC(NC(=O)[C@@H](N)C(C)C)C1O[C@H]2OC(C)(C)O[C@H]2[C@@H]1OC` (stereo not given in full), the result with Brugia malayi [1] was Active. Also, the Activity in data set [2] came to 20%.
